{
  "source": "ChEMBL document CHEMBL5726651",
  "about": "“Alkyne compounds for treatment of complement mediated disorders” (2017)",
  "molecular_target": "Complement factor D (Homo sapiens, UniProt P00746)",
  "sequence (P00746 whole entry)": "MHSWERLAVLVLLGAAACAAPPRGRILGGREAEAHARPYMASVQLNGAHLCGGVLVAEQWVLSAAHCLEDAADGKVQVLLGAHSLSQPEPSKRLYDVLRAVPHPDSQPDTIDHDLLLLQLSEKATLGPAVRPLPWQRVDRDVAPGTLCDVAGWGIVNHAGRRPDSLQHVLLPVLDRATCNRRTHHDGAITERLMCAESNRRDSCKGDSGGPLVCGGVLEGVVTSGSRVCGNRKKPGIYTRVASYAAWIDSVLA",
  "assay": "Inhibition Assay: Human factor D (purified from human serum, Complement Technology, Inc.) at 80 nM final concentration is incubated with test compound at various concentrations for 5 minutes at room temperature in 50 mM Tris, 1M NaCl, pH 7.5. A synthetic substrate Z-L-Lys-SBzl and DTNB (Ellman's reagent) are added to final concentrations of 100 μM each. The increase in color is recorded at OD405 nm in a microplate in kinetic mode over 30 minutes with 30 second time points in a […]. IC50 values are calculated by non-linear regression from the percentage of inhibition of complement factor D activity as a function of test compound concentration.",
  "data": [
    {"compound": "NC(=O)c1nn(CC(=O)N2C[C@H](F)C[C@H]2C(=O)Nc2cncc(Br)n2)c2ccc(C#Cc3ncc(F)cn3)cc12", "values": [
      {"measurement": "IC50", "result": "< 1000", "unit": "nM"}
    ]}
  ]
}
